Measurements taken from article PMC11960969, “Mdga2 deficiency leads to an aberrant activation of BDNF/TrkB signaling that underlies autism-relevant synaptic and behavioral changes in mice” (PLOS Biology, 2025).

Experiments:
Type in all cases: in vivo, mouse
[1] = tested on: mice; experiment: Three-chamber test (sociability and social novelty)
Procedure: (§1) Six- to eight-week-old male mice were subjected to various behavioral tests. Mice were allowed to acclimatize in the testing room for 1 h prior to each test. Data were recorded and analyzed using Smart 3.0 video tracking system (Panlab, Harvard Apparatus).
This test was performed as described previously with minor modifications. The apparatus (60 W × 40 D × 22 H cm) has two transparent partitions separating the left, the middle, and the right chambers (20 × 40 cm each), and each partition has a small opening (5 × 5 cm) for access to each chamber. A fixed wire cylinder (8.5 cm diameter) was placed in each of the left and the right chambers. This test consisted of three phases: habituation, sociability test, and social novelty test. During habituation, both left and right cylinders were empty, and tested mice were placed in the center and allowed to explore freely for 10 min. During the sociability test, a gender-matched strange mouse (S1) was enclosed in one empty cylinder, and mice were allowed to freely explore for 10 min. Their time spent sniffing S1 or the other empty cylinder (E) was measured and the sociability preference index (T(S1 − -E)/T(S1 + E): time spent sniffing S1 minus time spent sniffing E over time spent sniffing both S1 and E) was calculated for comparison. During the social novelty test, another gender-matched unfamiliar mouse (S2) was placed into the empty cylinder and mice were allowed to freely explore for another 10 min. Their time spent sniffing S1 or S2 was measured and the social novelty preference index (T(S2 − S1)/T(S2 + S1): time spent sniffing S2 minus time spent sniffing S1 over time spent sniffing both S2 and S1) was calculated for comparison.

[2] = tested on: mice; experiment: Open field test
Procedure: as §1
Mice were gently placed in the center of an open field apparatus (40 × 40 × 40 cm), and allowed for a 10-min period of free movement. Total distance traveled and time spent in center were analyzed.

[3] = tested on: TrkB signaling; experiment: Time course of TrkB signaling inhibition in cerebrum after i.p. ANA-12 (immunoblotting); settings: 0.5 mg/kg i.p., WT and Mdga2-/- mice, S4A Fig
Procedure: Equal protein amounts of total lysates from cells or mouse tissues were subjected to SDS-PAGE and immunoblotted with antibodies indicated. For Co-IP, 1 mg of protein lysates were incubated with antibodies indicated and Protein G Agarose (ThermoFisher, Cat# 20399) beads at 4 °C overnight, and immunoprecipitated proteins were then subjected to SDS-PAGE and immunoblotting. Uncropped immunoblotting images are shown in S1 Raw Images.
ANA-12 was dissolved in saline containing 10% DMSO to a final concentration of 0.5 mg/kg and intraperitoneally administered into male mice. For chronic treatment, ANA-12 was administered to 3-week-old male mice at twice/week for 3 weeks until mice reached 6 weeks of age. […]
Supplementary file pbio.3003047.s004.tif: S4 Fig Acute ANA-12 treatment temporarily rescues social deficits in Mdga2 ^+/− mice. […] (C–G) Mice were analyzed for their total travel distance in the open field test (C), their discrimination index in the novel location recognition test (D), their time spent self-grooming and bouts of self-grooming (E), their sniffing time in the social affiliation test (F), and their sociability and social novelty preferences in the three-chamber test (G). n = 15 mice per group. […] P-values were determined by two-way ANOVA with Tukey’s multiple comparisons test. ns: not significant, *p < 0.05, **p < 0.01, ***p < 0.001, ns: not significant. […]

## O=C(Nc1ccccc1C(=O)NC1CCCCNC1=O)c1cc2ccccc2s1 (stereo not shown) [ANA-12, reference compound]
[1]; AAV-Mdga2 shRNA mice, ANA-12 0.5 mg/kg i.p. twice per week 3 weeks, n = 10, Fig 6D
  impaired sociability and social novelty deficits (three-chamber): rescued impaired sociability and social novelty deficits
[1]; Mdga2+/- mice, acute 0.5 mg/kg i.p. 3 days, acute Test 1: Interaction F(1,56) = 9.336, p = 0.0034
  sociability preference: significantly higher sociability preference when compared to controls in acute Test 1
[1]; Mdga2+/- mice, chronic 0.5 mg/kg i.p., chronic Test 1, sociability F(1,56) = 13.52, p = 0.0005, novelty F(1,56) = 3.144, p = 0.0817
  impaired sociability and social novelty: significantly improved impaired sociability and social novelty
[1]; Mdga2+/- mice, chronic 0.5 mg/kg i.p., chronic Test 2, Interaction F(1,56) = 7.339, p = 0.0089
  impaired sociability: significantly improved impaired sociability in Mdga2^ +/− mice in chronic Test 2
[2]; Mdga2+/- mice, chronic 0.5 mg/kg i.p. twice per week 3 weeks, Test 1 Interaction F(1,56) = 0.2753, p = 0.6019, Test 2 F(1,56) = 0.2774, p = 0.6005
  locomotor activity: did not affect the locomotor activity
[2]; acute: 0.5 mg/kg i.p. once daily 3 days, Test 1 Interaction F(1,56) = 0.3413, p = 0.5614, Test 2 F(1,56) = 0.1904, p = 0.6643
  locomotor activity: did not affect locomotor activity
[3]
  time of main TrkB signaling inhibition after treatment: 16 to 24 h
